Data as given in patent US20100119599A1 (ARCHER PHARMACEUTICALS, INC., priority 2006, published 2010).

Legend:
Aβ1-40 = test: Measurement of Aβ1-40 in culture medium of 7W WT APP751 CHO cells by ELISA; format: cell-based, Chinese hamster; conditions: for activity at 5 µM: Cricetulus griseus, Table 1, 5 μM test compound, CHO cells stably transfected with human APP751, culture medium, ELISA, control DMSO, 0 = no detectable amount; for Aβ1-40 (% of control): CHO cells that overexpress APP751, zero = below the detection limit of the assay
Aβ1-42 = test: Measurement of Aβ1-42 in culture medium of 7W WT APP751 CHO cells by ELISA; format: cell-based, Chinese hamster; conditions: for activity at 5 µM: Cricetulus griseus, Table 1, 5 μM test compound, CHO cells stably transfected with human APP751, culture medium, ELISA, control DMSO, 0 = no detectable amount, read-out: Aβ1-42 (% of control); for Aβ1-42 (% of control): CHO cells that overexpress APP751, zero = below the detection limit of the assay
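Further: 5 µM test compound but RI-coded compounds at 10 µM for 24 hours.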

| SMILES | activity at 5 µM (Aβ1-40) | activity at 5 µM (Aβ1-42) | Aβ1-40 (% of control) (Aβ1-40) | Aβ1-42 (% of control) (Aβ1-42) |
| --- | --- | --- | --- | --- |
| CCCCCOC(=O)C1=C(C)NC2=C(C(=O)CC(C)(C)C2)C1c1ccc(Cl)cc1 (stereo not drawn) [ST013054, pentyl 4-(4-chlorophenyl)-2,7,7-trimethyl-5-oxo-1,4,6,7,8-pentahydroquinoline-3-carboxylate] | 0% | 8.36% |  |  |
| CCCOC(=O)C1=C(C)NC2=C(C(=O)CC(C)(C)C2)C1c1cccc(Cl)c1Cl (stereo not drawn) [ST013206, propyl 4-(2,3-dichiorophenyl)-2,7,7-trimethyl-5-oxo-1,4,6,7,8-pentahydroquinoline-3-carboxylate] | 0% | 62.5% |  |  |
| COC(=O)C1=C(C)NC2=C(C(=O)CC(c3ccc(OC)cc3)C2)C1c1ccc(C)cc1 (stereo not drawn) [ST013332, methyl 7-(4-methoxyphenyl)-2-methyl-4-(4-methylphenyl)-5-oxo-1,4,6,7,8-pentahydroquinoline-3-carboxylate] | 45.1% | 68% |  |  |
| CCN(CC)c1ccc(C2C(C(=O)OC)=C(C)NC3=C2C(=O)CC(c2ccccc2)C3)cc1 (stereo not drawn) [ST013129, methyl 4-[4-(diethylamino)phenyl]-2-methyl-5-oxo-7-phenyl-1,4,6,7,8-pentahydroquinoline-3-carboxylate] | 64.3% | 90.6% |  |  |
| N#CC1=C(N)n2c(s/c(=C\c3cccs3)c2=O)=C(C#N)C1c1cccs1 (stereo not drawn) [RI_98] |  |  | 74.6 % of control | 78.2 % of control |
| CCOC(=O)C1=CN(c2cc(C)ccc2C)C=C(C(=O)OCC)C1c1ccc(OC)c(OC)c1OC [ST052487, ethyl 1-(2,5-dimethylphenyl)-5-(ethoxycarbonyl)-4-(2,3,4-trimethoxyphenyl)-1,4-dihydropyridine-3-carboxylate] |  |  | 11.56 % of control | 15.1 % of control |
| CC1=C(C(=O)OC2CCCCC2)C(c2ccc(C)cc2)C2=C(CC(c3ccccc3)CC2=O)N1 (stereo not drawn) [ST013438, cyclohexyl 2-methyl-4-(4-methylphenyl)-5-oxo-7-phenyl-1,4,6,7,8-pentahydroquinoline-3-carboxylate] | 31.5% | 93.5% |  |  |
| COc1ccccc1C1C(C(=O)OCCc2ccccc2)=C(C)NC2=C1C(=O)CCC2 (stereo not drawn) [ST015110, 2-phenylethyl 4-(2-methoxyphenyl)-2-methyl-5-oxo-1,4,6,7,8-pentahydroquinoline-3-carboxylate] | 42.8% | 90.1% |  |  |
| COC(=O)C1=C(C)NC2=C(C(=O)CCC2)C1c1cccc(OC)c1OC (stereo not drawn) [ST013140, methyl 4-(2,3-dimethoxyphenyl)-2-methyl-5-oxo-1,4,6,7,8-pentahydroquinoline-3-carboxylate] | 96% | 51.1% |  |  |
| N#CC1=C(N)n2c(s/c(=C/c3ccc(Cl)cc3Cl)c2=O)=C(C#N)C1c1ccc(Cl)cc1Cl (stereo not drawn) [ST003360, 5-amino-7-(2,4-dichlorophenyl)-2-[(2,4-dichlorophenyl)methylene]-3-oxo-4,7-dihydro-1,3-thiazolidino[3,2-a]pyridine-6,8-dicarbonitrile] |  |  | 63.37 % of control | 72.55 % of control |
| CC1=C(C(=O)OC2CCCCC2)C(c2ccc(Br)cc2)C2=C(CCCC2=O)N1 (stereo not drawn) [ST017170, cyclohexyl 4-(4-bromophenyl)-2-methyl-5-oxo-1,4,6,7,8-pentahydroquinoline-3-carboxylate] | 3.47% | 1.38% |  |  |
| CCOc1cc(C2C(C(=O)OCCc3ccccc3)=C(C)NC3=C2C(=O)CCC3)cc(Br)c1O (stereo not drawn) [ST015061, 2-phenylethyl 4-(3-bromo-5-ethoxy-4-hydroxyphenyl)-2-methyl-5-oxo-1,4,6,7,8-pentahydroquinoline-3-carboxylate] | 40.8% | 33.5% |  |  |
| CC1=C(C(=O)Nc2ccc(Cl)cc2)C(c2ccccc2)C(C#N)=C(SCC(=O)Nc2ccc(C(C)C)cc2)N1 (stereo not drawn) [RI_54] |  |  | 45.89 % of control | 52.6 % of control |
| CC1=C(C(=O)Nc2ccccc2)C(c2cccs2)C(C#N)=C(SCC(=O)NCc2ccc(Br)cc2)N1 (stereo not drawn) [RI_20] |  |  | 45.6 % of control | 41.9 % of control |
| COc1ccc(Br)cc1C1C(C(=O)OCC2CCCO2)=C(C)NC2=C1C(=O)CCC2 (stereo not drawn) [ST052224, oxolan-2-ylmethyl 4-(5-bromo-2-methoxyphenyl)-2-methyl-5-oxo-1,4,6,7,8-pentahydroquinoline-3-carboxylate] | 76.9% | 68.1% |  |  |
| COc1ccccc1C1C(C(=O)OC(C)C)=C(C)NC2=C1C(=O)CC(c1ccccc1)C2 (stereo not drawn) [ST017220, methylethyl 4-(2-methoxyphenyl)-2-methyl-5-oxo-7-phenyl-1,4,6,7,8-pentahydroquinoline-3-carboxylate] | 60.9% | 99.6% |  |  |
| CCOC(=O)C1=C(C)NC2=C(C(=O)CC(c3ccc(OC)cc3)C2)C1c1ccc(OC)cc1 (stereo not drawn) [ST017136, ethyl 4,7-bis(4-methoxyphenyl)-2-methyl-5-oxo-1,4,6,7,8-pentahydroquinoline-3-carboxylate] | 87.7% | 66.1% |  |  |
| COC(=O)C1=C(C)NC2=C(C(=O)CCC2)C1c1cccc(C(F)(F)F)c1 (stereo not drawn) [ST052347, methyl 2-methyl-5-oxo-4-[3-(trifluoromethyl)phenyl]-1,4,6,7,8-pentahydroquinoline-3-carboxylate] | 57.2% | 64.3% |  |  |
| CCN(CC)c1ccc(C2C(C(=O)OCCOc3ccccc3)=C(C)NC3=C2C(=O)CC(C)(C)C3)cc1 (stereo not drawn) [ST015075, 2-phenoxyethyl 4-[4-(diethylamino)phenyl]-2,7,7-trimethyl-5-oxo-1,4,6,7,8-pentahydroquinoline-3-carboxylate] | 51.7% | 42.2% |  |  |
| CC1=C(C(=O)OCC(C)C)C(c2cc([N+](=O)[O-])ccc2Cl)C2=C(CCCC2=O)N1 (stereo not drawn) [ST052351, 2-methylpropyl 4-(2-chloro-5-nitrophenyl)-2-methyl-5-oxo-1,4,6,7,8-pentahydroquinoline-3-carboxylate] | 19.3% | 20.3% |  |  |
| CC1=C(C(=O)OCCc2ccccc2)C(c2cccc(Br)c2)C2=C(CCCC2=O)N1 (stereo not drawn) [ST052221, 2-phenylethyl 4-(3-bromophenyl)-2-methyl-5-oxo-1,4,6,7,8-pentahydroquinoline-3-carboxylate] | 62.4% | 46.1% |  |  |
| COc1ccc(COC(=O)C2=C(C)NC3=C(C(=O)CC(C)(C)C3)C2c2ccc(O)c(OC)c2)cc1 (stereo not drawn) [ST017025, (4-methoxyphenyl)methyl 4-(4-hydroxy-3-methoxyphenyl)-2,7,7-trimethyl-5-oxo-1,4,6,7,8-pentahydroquinoline-3-carboxylate] | 30.1% | 32.2% |  |  |
| CC1=C(C(=O)OC2CCCC2)C(c2ccc(F)c(F)c2)C2=C(CCCC2=O)N1 (stereo not drawn) [ST052267, cyclopentyl 4-(3,4-difluorophenyl)-2-methyl-5-oxo-1,4,6,7,8-pentahydroquinoline-3-carboxylate] | 50.7% | 52.8% |  |  |
| CCOC(=O)C1=CN(c2ccc(C)cc2)C=C(C(=O)OCC)C1c1ccccc1OCC [ST052284, ethyl 5-(ethoxycarbonyl)-4-(2-ethoxyphenyl)-1-(4-methylphenyl)-1,4-dihydropyridine-3-carboxylate] |  |  | 57.71 % of control | 55.61 % of control |
